According to patent US6608082B1, “Treatment of erectile dysfunction using isoquinoline compound melanocortin receptor ligands” (Lion Bioscience AG, priority 1998, dated 2003):

Legend:
MCR-4 = biological target: T1, MCR-4 (Homo sapiens, UniProt P32245); test: Melanocortin receptor binding assay, competition with 125I-HP 467, HEK 293 cells expressing hMCR-4; settings: inhibition of binding of 125I-HP 467, HEK 293 cells expressing MCR-4; read-out: MC-4 IC50
T1 construct: expressed in transfected cells; host or cells: HEK 293
Summary of the method: (§1)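 Test compounds compete on intact HEK 293 cells carrying hMCR-1 (2×10^4 per tube) or hMCR-4 (4×10^3 per tube), suspended in PBS, 10% calf serum, 1 mM CaCl2.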

MCR-1 = biological target: T2, MCR-1 (Homo sapiens, UniProt Q01726); test: Melanocortin receptor binding assay, competition with 125I-HP 467, HEK 293 cells expressing hMCR-1; settings: inhibition of binding of 125I-HP 467, HEK 293 cells expressing MCR-1; read-out: MC-1 IC50
T2 construct: expressed in transfected cells; host or cells: HEK 293
Summary of the method: as §1

T1 sequence (P32245 whole entry): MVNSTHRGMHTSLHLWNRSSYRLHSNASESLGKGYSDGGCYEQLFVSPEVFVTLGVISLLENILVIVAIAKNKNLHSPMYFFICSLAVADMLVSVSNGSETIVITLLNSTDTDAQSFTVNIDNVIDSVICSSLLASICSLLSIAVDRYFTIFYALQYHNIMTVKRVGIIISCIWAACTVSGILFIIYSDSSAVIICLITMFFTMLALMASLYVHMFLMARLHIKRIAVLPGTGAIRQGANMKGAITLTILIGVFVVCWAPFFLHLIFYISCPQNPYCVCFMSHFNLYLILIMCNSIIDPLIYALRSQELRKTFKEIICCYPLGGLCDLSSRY
T2 sequence (Q01726 whole entry): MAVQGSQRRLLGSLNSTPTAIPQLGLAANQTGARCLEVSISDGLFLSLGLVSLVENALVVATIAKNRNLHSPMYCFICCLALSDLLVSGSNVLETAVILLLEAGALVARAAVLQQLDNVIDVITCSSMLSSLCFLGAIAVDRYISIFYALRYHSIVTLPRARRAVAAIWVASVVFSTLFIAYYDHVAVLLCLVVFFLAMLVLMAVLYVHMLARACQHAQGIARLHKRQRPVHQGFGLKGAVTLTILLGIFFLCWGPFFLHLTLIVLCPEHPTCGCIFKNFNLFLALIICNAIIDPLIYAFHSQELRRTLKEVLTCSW

Row | SMILES | IC50 (MCR-4) [nM] | IC50 (MCR-1) [nM]
1 | COc1ccc(CNC(CN)CCCCN2Cc3ccccc3C(CNCCc3ccc(OC)c(OC)c3)C2c2cc(C(F)(F)F)cc(C(F)(F)F)c2)cc1 (stereo not drawn) [TRG 2421-19] | 520 | 1630
2 | COc1ccc(CCNCC2c3ccccc3CN(CCCCC(CN)NCc3ccc(-c4ccccc4)cc3)C2c2cc(C(F)(F)F)cc(C(F)(F)F)c2)cc1OC (stereo not drawn) [TRG 2421-20] | 1970 | 4220
3 | CCOc1ccc(CCNCC2c3ccccc3CN(CCCCC(CN)NCc3ccccc3)C2c2cc(C(F)(F)F)cc(C(F)(F)F)c2)cc1 (stereo not drawn) [TRG 2421-21] | 3980 | 2590
4 | CCOc1ccc(CCNCC2c3ccccc3CN(CCCCC(CN)NCc3ccc(C)cc3)C2c2cc(C(F)(F)F)cc(C(F)(F)F)c2)cc1 (stereo not drawn) [TRG 2421-22] | 8220 | 3020
5 | CCOc1ccc(CCNCC2c3ccccc3CN(CCCCC(CN)NCc3ccc(Br)cc3)C2c2cc(C(F)(F)F)cc(C(F)(F)F)c2)cc1 (stereo not drawn) [TRG 2421-23] | 8220 | 7440
6 | CCOc1ccc(CCNCC2c3ccccc3CN(CCCCC(CN)NCc3ccc(OC)cc3)C2c2cc(C(F)(F)F)cc(C(F)(F)F)c2)cc1 (stereo not drawn) [TRG 2421-24] | 2260 | 2350
7 | CCOc1ccc(CCNCC2c3ccccc3CN(CCCCC(CN)NCc3ccc(-c4ccccc4)cc3)C2c2cc(C(F)(F)F)cc(C(F)(F)F)c2)cc1 (stereo not drawn) [TRG 2421-25] | 10900 | 10000
8 | NCC(CCCCN1Cc2ccccc2C(CNCCc2ccc(Oc3ccccc3)cc2)C1c1cc(C(F)(F)F)cc(C(F)(F)F)c1)NCc1ccccc1 (stereo not drawn) [TRG 2421-26] | 12900 | 11400
9 | Cc1ccc(CNC(CN)CCCCN2Cc3ccccc3C(CNCCc3ccc(Oc4ccccc4)cc3)C2c2cc(C(F)(F)F)cc(C(F)(F)F)c2)cc1 (stereo not drawn) [TRG 2421-27] | 9260 | 7260
10 | COc1ccc(CNC(CN)CCCCN2Cc3ccccc3C(CNCCc3ccc(Oc4ccccc4)cc3)C2c2cc(C(F)(F)F)cc(C(F)(F)F)c2)cc1 (stereo not drawn) [TRG 2421-29] | 7920 | 5100
11 | NCC(CCCCN1Cc2ccccc2C(CNCCc2ccc(Cl)cc2)C1c1cc(C(F)(F)F)cc(C(F)(F)F)c1)NCc1ccccc1 (stereo not drawn) [TRG 2421-31] | 2770 | 5900
12 | Cc1ccc(CNC(CN)CCCCN2Cc3ccccc3C(CNCCc3ccc(Cl)cc3)C2c2cc(C(F)(F)F)cc(C(F)(F)F)c2)cc1 (stereo not drawn) [TRG 2421-32] | 4150 | 5770
13 | NCC(CCCCN1Cc2ccccc2C(CNCCc2ccc(Cl)cc2)C1c1cc(C(F)(F)F)cc(C(F)(F)F)c1)NCc1ccc(Br)cc1 (stereo not drawn) [TRG 2421-33] | 8360 | 6930
14 | COc1ccc(CNC(CN)CCCCN2Cc3ccccc3C(CNCCc3ccc(Cl)cc3)C2c2cc(C(F)(F)F)cc(C(F)(F)F)c2)cc1 (stereo not drawn) [TRG 2421-34] | 2640 | 4980
15 | COc1cccc(CCNCC2c3ccccc3CN(CCCCC(CN)NCc3ccccc3)C2c2cc(C(F)(F)F)cc(C(F)(F)F)c2)c1 (stereo not drawn) [TRG 2421-36] | 890 | 3990
16 | COc1cccc(CCNCC2c3ccccc3CN(CCCCC(CN)NCc3ccc(C)cc3)C2c2cc(C(F)(F)F)cc(C(F)(F)F)c2)c1 (stereo not drawn) [TRG 2421-37] | 840 | 3080
17 | COc1cccc(CCNCC2c3ccccc3CN(CCCCC(CN)NCc3ccc(Br)cc3)C2c2cc(C(F)(F)F)cc(C(F)(F)F)c2)c1 (stereo not drawn) [TRG 2421-38] | 1340 | 7470
18 | COc1ccc(CNC(CN)CCCCN2Cc3ccccc3C(CNCCc3cccc(OC)c3)C2c2cc(C(F)(F)F)cc(C(F)(F)F)c2)cc1 (stereo not drawn) [TRG 2421-39] | 1040 | 3300
19 | COc1cccc(CCNCC2c3ccccc3CN(CCCCC(CN)NCc3ccc(-c4ccccc4)cc3)C2c2cc(C(F)(F)F)cc(C(F)(F)F)c2)c1 (stereo not drawn) [TRG 2421-40] | 3980 | 12100
20 | NCC(CCCCN1Cc2ccccc2C(CNCCc2ccccc2)C1c1cccc(C(F)(F)F)c1)NCc1ccccc1 (stereo not drawn) [TRG 2421-41] | 1720 | 2510
21 | COc1ccc(CNC(CN)CCCCN2Cc3ccccc3C(CNCCc3ccccc3)C2c2cccc(C(F)(F)F)c2)cc1 (stereo not drawn) [TRG 2421-42] | 1720 | 2150
22 | COc1ccc(CCNCC2c3ccccc3CN(CCCCC(CN)NCc3ccccc3)C2c2cccc(C(F)(F)F)c2)cc1 (stereo not drawn) [TRG 2421-43] | 1760 | 2150
23 | COc1ccc(CCNCC2c3ccccc3CN(CCCCC(CN)NCc3ccc(OC)cc3)C2c2cccc(C(F)(F)F)c2)cc1 (stereo not drawn) [TRG 2421-44] | 1420 | 1540
24 | CCOc1ccc(CCNCC2c3ccccc3CN(CCCCC(CN)NCc3ccccc3)C2c2cccc(C(F)(F)F)c2)cc1 (stereo not drawn) [TRG 2421-45] | 2730 | 980
25 | CCOc1ccc(CCNCC2c3ccccc3CN(CCCCC(CN)NCc3ccc(OC)cc3)C2c2cccc(C(F)(F)F)c2)cc1 (stereo not drawn) [TRG 2421-46] | 3610 | 1580
26 | COc1cccc(CCNCC2c3ccccc3CN(CCCCC(CN)NCc3ccccc3)C2c2cccc(C(F)(F)F)c2)c1 (stereo not drawn) [TRG 2421-47] | 1370 | 2710
27 | COc1ccc(CNC(CN)CCCCN2Cc3ccccc3C(CNCCc3cccc(OC)c3)C2c2cccc(C(F)(F)F)c2)cc1 (stereo not drawn) [TRG 2421-48] | 950 | 1740
